The text below walks through data of patent US7262202B2, “Inhibitors of cyclin dependent kinases as anti-cancer agent” (Cyclacel Limited, priority 2001, dated 2007).

Each structure is given as a SMILES string. pIC50: −log10 of the molar value. Like-named read-outs stand apart in the source and are kept apart here. A value given as a limit tells only on which side of the number the result lay.

One series concerns the target T1, CDK2/cyclin E (Homo sapiens, UniProt P24941).
T1 construct: His; made in house; host or cells: Sf9 insect cells (baculovirus)
The series is described as follows: CDK2/Cyclin E kinase assay (GST-Rb phosphorylation, radiolabelled ATP).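 Note: enzyme was His-tagged CDK2/cyclin E co-expressed in baculovirus-infected Sf9 insect cells and purified over a metal-chelate column.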 The series is classed as biochemical.

Another series deals with Saos-2. Nature of the series: 72-h MTT cellular proliferation assay, Saos-2. The settings on record: human tumour cell line Saos-2, 72-h MTT; read-out: Cytotoxicity (IC50, μM) Saos-2. In kind it is cell-based. From the text:
(§1) Selected compounds from the above examples were subjected to a standard cellular proliferation assay using a range of different human tumour cell lines.

For the next series, the system named is A549. The series is described as follows: 72-h MTT cellular proliferation assay, A549. The following applies: human tumour cell line A549, 72-h MTT; read-out: Cytotoxicity (IC50, μM) A549. In kind it is cell-based.
From the text: as §1
(In general: Tetrazolium assays rely on reduction of a dye to a coloured formazan, in cell work by metabolically active cells.)

For another series, the system named is HT29. Nature of the series: 72-h MTT cellular proliferation assay, HT29. In kind it is cell-based. The following applies: HT-29; human tumour cell line HT29, 72-h MTT; read-out: Cytotoxicity (IC50, μM) HT29.
From the text: as §1

In a further series the test system is human tumour cell lines. Nature of the series: cell-based anti-proliferative assays. From the text: These assays, including methods for their performance, are described in more detail in Example 3. Using such cell line and enzymes assays it may be determined whether a compound is anti-proliferative in the context of the present invention.
(§2) Selected compounds from the above examples were subjected to a standard cellular proliferation assay using a range of different human tumour cell lines. Standard 72-h MTT (thiazolyl blue; 3-[4,5-dimethylthiazol-2-yl]-2,5-diphenyltetrazolium bromide) assays were performed (Haselsberger, K.; Peterson, D. C.; Thomas, D. G.; Darling, J. L. Anti Cancer Drugs 1996, 7, 331–8; Loveland, B. E.; Johns, T. G.; Mackay, I. R.; Vaillant, F.; Wang, Z. X.; Hertzog, P. J. Biochemistry International 1992, 27, 501–10). Human tumour cell lines were obtained from the ATCC (American Type Culture Collection, 10801 University Boulevard, Manessas, Va. 20110-2209, USA).

A short description of series [1]: 72-h MTT cellular proliferation assay, W138. In kind it is cell-based. The settings on record: human, W138 cells (non-transformed); non-transformed cell line W138, 72-h MTT; read-out: Cytotoxicity (IC50, μM) W138. On the procedure:
as §2

Series [2] in a line: 72-h MTT cellular proliferation assay, Hs27. The series is classed as cell-based. The settings on record: human, Hs27 cells (non-transformed); non-transformed cell line Hs27, 72-h MTT; read-out: Cytotoxicity (IC50, μM) Hs27. On the procedure:
as §2

Series [3] can be described thus: 72-h MTT cellular proliferation assay, IMR90. In kind it is cell-based. The settings on record: human, IMR90 cells (non-transformed); non-transformed cell line IMR90, 72-h MTT; read-out: Cytotoxicity (IC50, μM) IMR90. On the procedure:
as §2

The subject of another series is MCF7. The series is described as follows: 72-h MTT cellular proliferation assay, MCF7. The series is classed as cell-based. The following applies: human tumour cell line MCF7, 72-h MTT; read-out: Cytotoxicity (IC50, μM) MCF7.
From the text: as §1

The test system of a further series is HeLa. The series is described as follows: 72-h MTT cellular proliferation assay, HeLa. In kind it is cell-based. The following applies: human tumour cell line HeLa, read-out: Cytotoxicity (IC50, μM) HeLa.
From the text: as §1

Where [4] appears, read: bound stated, (±0.05), read-out: IC50 for cdk2/cyclinE.

The compound `Cc1[nH]c(C#N)c(C)c1-c1ccnc(Nc2ccc(C(F)(F)F)cc2)n1` [Compound 34, 3,5-Dimethyl-4-[2-(4-trifluoromethyl-phenylamino)-pyrimidin-4-yl]-H-pyrrole-2-carbonitrile] returned a melting point of 195.6 to 198.9 °C. At CDK2/cyclin E (setting [4]), the pIC50 is greater than 6.30. For the same compound, the IC50 in the series on Saos-2 is 3.4 µM. Besides, the IC50 in the series with A549 is 3.64 µM. Besides, the IC50 in the series with HT29 was determined as 0.95 µM. Also, the “anti-proliferative activity in cell-based assays” value (“anti-proliferative activity” for short) in the series with human tumour cell lines is “particularly effective anti-proliferative agents”.
`Cc1c[nH]c(C)c1-c1ccnc(Nc2ccc(C(F)(F)F)cc2)n1` [Compound 12, [4-(2,4-Dimethyl-1H-pyrrol-3-yl)-pyrimidin-2-yl]-(4-trifluoromethyl-phenyl)-amine]: the melting point was in the range of 165.6 to 167.9 °C. Moreover, on CDK2/cyclin E (setting [4]), the pIC50 was greater than 6.00. For the same compound, at CDK2/cyclin E (read-out: CDK2/cyclin E (IC50)), the pIC50 is 6.05. Further, the IC50 in the series on Saos-2 is 17 µM. Also, the IC50 in the series on A549 is 15 µM. In the series with HT29, the IC50 is 3.1 µM. The “anti-proliferative activity” value with human tumour cell lines is given as “particularly effective anti-proliferative agents”.
Compound `Cc1[nH]c(C#N)c(C)c1-c1ccnc(Nc2ccc(N(C)C)cc2)n1` [Compound 43, 4-[2-(4-Dimethylamino-phenylamino)-pyrimidin-4-yl]-3,5-dimethyl-1H-pyrrole-2-carbonitrile] showed a melting point of 190.6 to 193.7 °C. Further, the pIC50 at CDK2/cyclin E (setting [4]) was greater than 6.00. Also, in the series with Saos-2, the 50% inhibitory concentration (IC50) was found to be 1.5 µM. The IC50 with A549 turned out to be 1.41 µM. The IC50 in the series on HT29 stood at 0.17 µM. Further, the “anti-proliferative activity” value with human tumour cell lines is listed as “particularly effective anti-proliferative agents”.
`Cc1[nH]c(Br)c(C)c1-c1ccnc(Nc2cccc([N+](=O)[O-])c2)n1` [Compound 51, [4-(5-Bromo-2,4-dimethyl-1H-pyrrol-3-yl)-pyrimidin-2-yl]-(3-nitro-phenyl)-amine] showed a melting point of 198.1 to 203 °C. In addition, the pIC50 on CDK2/cyclin E (setting [4]) was greater than 6.30. In addition, the 50% inhibitory concentration (IC50) in the series with Saos-2 was determined as 12.4 µM. The IC50 in the series with A549 came to 7.56 µM. Moreover, the IC50 in the series with HT29 worked out at 2.92 µM. Further, the “anti-proliferative activity” value with human tumour cell lines is given as “particularly effective anti-proliferative agents”.
Take `Cc1[nH]c(C#N)c(C)c1-c1ccnc(Nc2ccc(F)cc2)n1` [Compound 32, 4-[2-(4-Fluoro-phenylamino)-pyrimidin-4-yl]-3,5-dimethyl-1H-pyrrole-2-carbonitrile]: the pIC50 at CDK2/cyclin E (setting [4]) is greater than 6.30. The IC50 at 72 h is 9.6 µM in series [1], 15.1 µM in [2] and 20.8 µM in series [3]. Moreover, the “anti-proliferative activity” value with human tumour cell lines is given as “particularly effective anti-proliferative agents”.
The compound `Cc1[nH]c(CN(C)C)c(C)c1-c1ccnc(Nc2ccc(F)cc2)n1` [Compound 54, [4-(5-Dimethylaminomethyl-2,4-dimethyl-1H-pyrrol-3-yl)-pyrimidin-2-yl]-(4-fluoro-phenyl)-amine] displayed a melting point of 88.4 to 91.6 °C. Moreover, the pIC50 on CDK2/cyclin E (setting [4]) is greater than 6.30. Moreover, the IC50 in the series with Saos-2 was 0.7 µM. The IC50 in the series on A549 came to 2.76 µM. In the series on HT29, the IC50 came to 3.2 µM. In addition, the “anti-proliferative activity” value in the series on human tumour cell lines is reported as “particularly effective anti-proliferative agents”.
In turn, `Cc1ccc(Nc2nccc(-c3c(C)[nH]c(C#N)c3C)n2)cc1F` [Compound 42, 4-[2-(3-Fluoro-4-methyl-phenylamino)-pyrimidin-4-yl]-3,5-dimethyl-1H-pyrrole-2-carbonitrile] displayed a melting point of 177.7 to 179.9 °C. In addition, the pIC50 at CDK2/cyclin E (setting [4]) is greater than 6.00. In the series on Saos-2, the IC50 amounted to 2.23 µM. Besides, in the series with A549, the IC50 was determined as 1.49 µM. Further, the IC50 in the series with HT29 was determined as 0.28 µM. For the same compound, the “anti-proliferative activity” value in the series with human tumour cell lines is listed as “particularly effective anti-proliferative agents”.
For `Cc1ccc(Nc2nccc(-c3c(C)[nH]c(C#N)c3C)n2)cc1I` [Compound 38, 4-[2-(3-Iodo-4-methyl-phenylamino)-pyrimidin-4-yl]-3,5-dimethyl-1H-pyrrole-2-carbonitrile], the melting point is 189.5 to 191.7 °C. The pIC50 at CDK2/cyclin E (setting [4]) was greater than 6.00. In addition, in the series on Saos-2, the concentration for half-maximal inhibition (IC50) was 3.12 µM. Besides, the IC50 with A549 came out at 3.6 µM. In addition, the IC50 in the series on HT29 is 0.72 µM. Further, the “anti-proliferative activity” value with human tumour cell lines is reported as “particularly effective anti-proliferative agents”.
Take `Cc1[nH]c([N+](=O)[O-])c(C)c1-c1ccnc(Nc2ccc(N(C)C)cc2)n1` [Compound 48, N-[4-(2,4-Dimethyl-5-nitro-1H-pyrrol-3-yl)-pyrimidin-2-yl]-N′,N′-dimethyl-benzene-1,4-diamine]: the melting point was in the range of 265 to 268 °C. Besides, on CDK2/cyclin E (setting [4]), the pIC50 is greater than 6.00. Further, the IC50 with Saos-2 was found to be 2.65 µM. The IC50 in the series on A549 is 3.05 µM. For the same compound, in the series on HT29, the IC50 came out at 0.61 µM. In the series with human tumour cell lines, the “anti-proliferative activity” value is reported as “particularly effective anti-proliferative agents”.
For the compound `Cc1cc(Nc2nccc(-c3c(C)[nH]c(C#N)c3C)n2)ccc1Cl` [Compound 39, 4-[2-(4-Chloro-3-methyl-phenylamino)-pyrimidin-4-yl]-3,5-dimethyl-1H-pyrrole-2-carbonitrile], the melting point lay within 194.2 to 197.9 °C. The pIC50 on CDK2/cyclin E (setting [4]) was greater than 6.00. Also, on CDK2/cyclin E (read-out: CDK2/cyclin E (IC50)), the pIC50 is 5.99. Also, the IC50 in the series on Saos-2 is 5.88 µM. Moreover, the IC50 in the series on A549 came out at 4.37 µM. In addition, the IC50 with HT29 was determined as 3.27 µM. Besides, in the series on human tumour cell lines, the “anti-proliferative activity” value was “particularly effective anti-proliferative agents”.
`Cc1[nH]c(C#N)c(C)c1-c1ccnc(Nc2ccc(I)cc2)n1` [Compound 35, 4-[2-(4-Iodo-phenylamino)-pyrimidin-4-yl]-3,5-dimethyl-1H-pyrrole-2-carbonitrile]: the melting point was in the range of 178.3 to 181.2 °C. In addition, at CDK2/cyclin E (setting [4]), the pIC50 is greater than 6.30. Moreover, in the series with Saos-2, the IC50 turned out to be 0.75 µM. Further, the IC50 with A549 stood at 0.51 µM. Moreover, the IC50 in the series with MCF7 came out at 0.45 µM. Also, the IC50 with HT29 amounted to 0.11 µM. Besides, in [1], the IC50 at 72 h is 21.3 µM. The IC50 at 72 h in series [2] is 35.1 µM. For the same compound, the IC50 at 72 h in [3] was 37.3 µM. Moreover, in the series with HeLa, the IC50 was found to be 0.09 µM. In addition, the “anti-proliferative activity” value in the series with human tumour cell lines is “particularly effective anti-proliferative agents”.

As a reminder, the IC50 is the point on the concentration scale where inhibition reaches its midpoint. For orientation: melting point means the temperature of the solid-liquid transition.
